EC50 data for eight molecules are collected here from US6277831A, “1,4-benzothiazepine-1,1-dioxide derivatives substituted by sugar residues, process for their preparation, pharmaceuticals comprising these compounds, and their use” (Aventis Pharma Deutschland GmbH, priority 1999, dated 2001).

As a reminder, the EC50 is the concentration needed to bring the measured effect to its halfway point.

The structures appear in SMILES notation.

For this assay, the system named is bile acid transport in the ileum. The assay can be described thus: Ileum perfusion test: inhibition of bile acid (3H-taurocholic acid) transport in the ileum of anesthetized rats. The class given is in vivo, Male Wistar rats. As to conditions: rat ileum perfusion; 3 mM taurocholic acid, pH 7.4, 37° C.; 3H-TCA in bile at 80-90 min vs 30-40 min; diastereomeric mixtures unless indicated otherwise. As for the experimental part: The biological testing of compounds according to the invention was carried out by means of a perfusion test. This test investigates the action of the compounds on the bile acid transport in the ileum. The diastereomeric mixtures of the compounds were tested unless indicated otherwise.
The Perfusion Test was Carried Out as Described Below:
Male Wistar rats (weight range 250-350 g) were anesthetized with urethane (1.5 g/kg i.p.) and the bile duct was cannulated with a polyethylene tube. Eight centimeters proximal to the ileocecal flap, an incision was made into the ileum and a silicone adapter for tubes was sewn in. A second incision with implantation of a corresponding silicone adapter was made in the cecum. Silicone tubes were attached to the adapter in order to perfuse the ileum in an orthograde and open manner (nonrecirculating) with perfusion buffer at a perfusion rate of 1 ml/min.
The perfusion tubes were filled with perfusion buffer (137 mM NaCl, 0.9 mM CaCl2, 0.51 mM MgCl2, 8.1 mM Na2 HPO4, 2.7 mM KCl, 1.47 mM KH2 PO4) (pH 7.4), 1% (v/v) ethanol, and 1% DMSO. The perfusion buffer contained the test compounds in concentrations as indicated, or the vehicle alone. The buffer was preheated to 37° C. The perfusion buffer contained 3 mM taurocholic acid (TCA), which in turn was labeled with 1000 dpm/μl of ^3 H TCA as a marker.
Study Design and Evaluation of the Results
An experimental batch was chosen which allowed the determination of the inhibition of bile acid transport in the individual animal. The bile was collected at 10 min intervals over a period of 90 min (in the case of a following wash-out phase for testing the reversibility over a period of up to 160 min). The perfusion of the vehicle-containing buffer solution over a period of 40 min (pre-test substance) was followed by a perfusion with perfusion buffer which contained the test compound in the concentration to be tested (to 90 min).
For the calculation of the percentage inhibition by the test compound, the dpms (disintegrations per min of ^3 H-TCA) in the bile from 80-90 min (end of the perfusion with the test substance) were related to the collection period 30-40 min during the preliminary phase, when the excretion of the ^3 H-TCA in the control phase had reached its maximum and plateau. The EC50 (=effective concentration 50) was calculated as the effective concentration between the inhibitory values of different concentrations which inhibited the maximum bile acid excretion by 50%.
On to `CCCC[C@]1(CC)CS(=O)(=O)c2cc(OC)c(OC)cc2[C@@H](c2ccccc2)N1` [Comparison Example 8, reference compound], for which the EC50 turned out to be 9800 nM.

Turning to `CCCCC1(CCCC)CS(=O)(=O)c2ccc(N(C)C)cc2C(c2cccc(NC(=O)CCCCNC[C@H](O)[C@@H](O)[C@H](O)[C@H](O)CO)c2)N1` (some centres unmarked) [Example 7], the EC50 was 1400 nM.

For `CCCCC1(CCCC)CS(=O)(=O)c2ccc(N(C)C)cc2C(c2cccc(NC(=O)[C@H](O)[C@@H](O)[C@H](O)[C@H](O)CO)c2)N1` (some centres unmarked) [Example 5], the EC50 was determined as 400 nM.

As for `CCCCC1(CC)CS(=O)(=O)c2ccc(N(C)C)cc2C(c2cccc(NC(=O)CCCCCCCCCCNC(=O)[C@H](O)[C@@H](O)[C@H](O)[C@H](O)CO)c2)N1` (some centres unmarked) [Example 4], the EC50 stood at 720 nM.

For the molecule `CCCCC1(CC)CS(=O)(=O)c2ccc(N(C)C)cc2C(c2cccc(NC(=O)[C@H](O)[C@@H](O)[C@H](O)[C@H](O)CO)c2)N1O` (some centres unmarked) [Example 2], the EC50 was 150 nM.

For the molecule `CCCCC1(CC)CS(=O)(=O)c2ccc(N(C)C)cc2C(c2cccc(NC(=O)[C@H](O)[C@@H](O)[C@H](O)[C@H](O)CO)c2)N1` (some centres unmarked) [Example 1], the EC50 turned out to be 90 nM.

Turning to `CCCCC1(CC)CS(=O)(=O)c2ccc(N(C)C)cc2C(c2cccc(NC(=O)CCCCNC[C@H](O)[C@@H](O)[C@H](O)[C@H](O)CO)c2)N1` (some centres unmarked) [Example 3], the EC50 was 220 nM.

For the molecule `CCCCC1(CCCC)CS(=O)(=O)c2ccc(N(C)C)cc2C(c2cccc(NC(=O)[C@H](O)[C@@H](O)[C@H](O)[C@H](O)CO)c2)N1O` (some centres unmarked) [Example 6], the EC50 stood at 90 nM.
